From patent US8710089B2, “Triazole derivatives as ghrelin analogue ligands of growth hormone secretagogue receptors” (Zentaris GmbH, priority 2005, dated 2014)
Values joined by “and” are separate entries in the source; they are usually repeats but may differ in a detail not shown here. Equal entries are not always repeated. Non-standard residues stand in square brackets, D forms with d. Residues, ends and D or L forms follow the SMILES beside them. dTrp(2-Me) = Cc1[nH]c2ccccc2c1C[C@@H](N)C(=O)O

Assays:
[1] = system: GH concentration in the plasma of male rat pups; experiment: In vivo GH concentration in the plasma of male rat pups; design: species or system rat (Sprague-Dawley); details: rat pup plasma
Description: IV) Assaying In Vivo GH Concentration in the Plasma of Male Rat Pups
GH plasma concentrations of male rat pubs were assayed to characterize the modulation effect (antagonistic or agonistic) of the compounds of the invention being GHS receptor analogue ligands.
In principle, assaying in vivo GH concentration in rat plasma was performed according to Torsello et al. (Eur. J. Pharmacol. 1998, 360: 123-129).
Male Sprague-Dawley rat pups (Charles River, Calco, Italy) were separated on postnatal day seven from their mothers and randomly redistributed to the dams, so that each one nurtured ten to twelve pups. On postnatal day ten, the pups were again separated from their mothers.
The compounds to be tested were dissolved in solvent [DMSO (0.4% of total volume), distilled water (4% of total volume), brought to the final volume with physiological saline].
One hour after separation from their mothers, the pups were given isovolumetric amounts of the compounds to be tested (160 μg/kg body weight s.c.) at time −10 min and then administered with hexarelin (80 μg/kg body weight s.c.) or solvent at time 0 min before being killed 15 min later by decapitation. Trunk blood was collected, immediately centrifuged and plasma samples were stored at −20° C. until assayed for the determination of GH concentrations.
Plasma GH concentrations were measured using a rat growth hormone enzyme immunoassay kit (SPIbio, France, cat. no. 589601) according to the manufacturer's instructions. Values are expressed in terms of NIDDK rat-GH-RP2 standard (potency 2 IU/mg) as ng/mL of plasma
The limit of detection calculated as the concentration producing 15% displacement of initial tracer was 0.5 ng/ml; intra-assay and inter-assay coefficient of variation are 4% (n=24) and 14% (n=9).
In the following table 3 results obtained for selected compounds of the invention are presented.

[2] = molecular target: T1, human GHS-R 1a (Homo sapiens, UniProt Q92847); experiment: GHS-R 1a receptor-ligand binding assay (membrane preparations from transfected LLC PK-1 cells); details: displacement of 125I-His9-ghrelin (60 pM); membranes of LLC PK-1 cells transfected with human GHS-R 1a; mean of at least two independent experiments in triplicates
T1 construct: expressed in transfected cells; host or cells: LLC PK-1 porcine renal epithelial cells (ECACC No. 86121112), isolated plasma membranes
Summary of the method: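 Membranes from LLC PK-1 cells expressing human GHS-R 1a incubated 60 min at 25 °C in 50 mM Tris pH 7.3, 5 mM MgCl2, 2.5 mM EDTA, bacitracin with 60 pM 125I-ghrelin and competitor; nonspecific binding with 10^-6 M ghrelin; filtration read-out.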

[3] = system: young-adult male Sprague-Dawley rats; experiment: Feeding behavior (food intake) of young-adult male rats; format: in vivo, rat (Sprague-Dawley)
Description: V) Assaying the Feeding Behavior (Food Intake) of Young-Adult Male Rats
The impact of compounds of the invention being GHS receptor analogue ligands on the feeding behaviour, i.e. food intake, of young-adult male rats was assayed.
In principle, assaying the feeding behavior (food intake) of young-adult male rats was performed according to Torsello et al. (Eur. J. Pharmacol. 1998, 360: 123-129).
For the assay, young-adult male Sprague-Dawley rats (Charles River, Calco, Italy), weighing 200-250 g, were used.
Rats had 1 week of acclimation in individual home cages, and animal room conditions (22±2° C., 65% humidity, artificial light from 08.00 to 20.00 h). The following week, they were daily trained to mimic the experimental procedure. Rats maintained free access to dry pellets and tap water throughout the whole experimental period. At the end of training, rats were administered (around 10.00-11.00 a.m.) subcutaneously with the compounds to be tested (160 μg/kg body weight) and/or hexarelin (80 μg/kg body weight) and/or solvent [DMSO (0.4% of total volume), distilled water (4% of total volume), brought to the final volume with physiological saline].
Hexarelin was used to study the effects of the compounds to be tested on stimulated feeding behavior. Immediately after the injections, the animals were returned to their home cages, which contained a known amount of standard rat chow and ad libitum water. Every hour for the following 6 hours, the remaining food was carefully collected and weighed to the nearest 0.1 g. Food intake was normalized for the body weight of the rats and expressed as grams of food eaten per 100 g body weight of rats.
In the following table 4 results obtained for selected compounds of the invention are presented.

[4] = compound 160 μg/kg s.c. at -10 min + hexarelin 80 μg/kg s.c. at 0 min, killed 15 min later
[5] = compound alone 160 μg/kg body weight s.c. at -10 min, solvent at 0 min, killed 15 min later
[6] = compound 160 μg/kg s.c. + hexarelin 80 μg/kg s.c.
[7] = compound alone, 160 μg/kg body weight s.c.

T1 sequence (Q92847 whole entry): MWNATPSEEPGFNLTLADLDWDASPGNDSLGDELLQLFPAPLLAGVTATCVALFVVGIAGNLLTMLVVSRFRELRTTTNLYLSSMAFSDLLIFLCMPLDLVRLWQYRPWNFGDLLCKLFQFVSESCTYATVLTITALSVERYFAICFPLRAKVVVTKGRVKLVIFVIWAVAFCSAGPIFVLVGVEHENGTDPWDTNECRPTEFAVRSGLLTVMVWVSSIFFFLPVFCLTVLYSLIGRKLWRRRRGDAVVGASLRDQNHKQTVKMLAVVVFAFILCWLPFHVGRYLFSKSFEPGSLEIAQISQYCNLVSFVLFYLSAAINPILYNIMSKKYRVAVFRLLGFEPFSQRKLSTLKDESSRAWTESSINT

Row | SMILES | GH concentration [1, 4] | GH concentration [1, 5] | IC50 [2] [nM] | Cumulative food intake (after 2 hours) [3, 6] [g food/100 g body weight] | Cumulative food intake (after 6 hours) [3, 6] [g food/100 g body weight] | Cumulative food intake (after 2 hours) [3, 7] [g food/100 g body weight] | Cumulative food intake (after 6 hours) [3, 7] [g food/100 g body weight] | GH concentration ([1]; hexarelin alone 80 μg/kg body weight s.c.)
1 | CC(C)(N)C(=O)N[C@H](Cc1c[nH]c2ccccc12)c1nnc(Cc2ccccc2)n1Cc1ccccn1 [compound 39, (R)—N-(1-(5-benzyl-4-(pyridin-2-ylmethyl)-4H-1,2,4-triazol-3-yl)-2-(1H-indol-3-yl)ethyl)-2-amino-2-methylpropanamide] | 82.481 ± 11.530 ng/mL and 82.481 ± 11.53 ng/mL | 5.509 ± 1.950 ng/mL and 5.509 ± 1.95 ng/mL | – | – | – | – | – | –
2 | COc1ccc(Cn2c(CCCc3ccccc3)nnc2[C@@H](Cc2c[nH]c3ccccc23)NC(=O)C(C)(C)N)cc1 [compound 22, (R)—N-(1-(4-(4-methoxybenzyl)-5-(3-phenylpropyl)-4H-1,2,4-triazol-3-yl)-2-(1H-indol-3-yl)ethyl)-2-amino-2-methylpropanamide] | 239.91 ± 19.75 ng/mL | 4.88 ± 0.33 ng/mL | 12 | 0.67 ± 0.12 | 0.86 ± 0.18 | 0.01 | 0.44 ± 0.2 | –
3 | COc1ccc(Cn2c(CCc3c[nH]c4ccccc34)nnc2[C@@H](Cc2c[nH]c3ccccc23)NC(=O)C2CNCCN2)cc1 (stereo partly shown) [compound 81] | 216.575 ± 19.734 ng/mL | 18.634 ± 2.933 ng/mL | 18 | 0.024 ± 0.0101 | 0.116 ± 0.077 | 0.017 ± 0.004 | 0.03 ± 0 | –
4 | COc1ccc(Cn2c(CCc3ccccc3)nnc2[C@@H](Cc2c[nH]c3ccccc23)NC(=O)[C@@H]2CCCCN2)cc1 [compound 48, (S)—N—((R)-1-(4-(4-methoxybenzyl)-5-phenethyl-4H-1,2,4-triazol-3-yl)-2-(1H-indol-3-yl)ethyl)piperidine-2-carboxamide] | 145.946 ± 12.159 ng/mL | 6.096 ± 2.091 ng/mL | – | – | – | – | – | –
5 | CC(C)(N)C(=O)N[C@H](Cc1c[nH]c2ccccc12)c1nnc(Cc2ccccc2)n1Cc1ccc(F)cc1 [compound 30, (R)—N-(1-(4-(4-fluorobenzyl)-5-benzyl-4H-1,2,4-triazol-3-yl)-2-(1H-indol-3-yl)ethyl)-2-amino-2-methylpropanamide] | – | – | 171 | 1.350 ± 0.177 | 1.449 ± 0.213 | 0.264 ± 0.244 | 0.277 ± 0.246 | –
6 | COc1ccc(Cn2c(CCc3c[nH]c4ccccc34)nnc2[C@@H](Cc2c[nH]c3ccccc23)NC(=O)c2ccccn2)cc1 [compound 80, (R)—N-(1-(5-(2-(1H-indol-3-yl)ethyl)-4-(4-methoxybenzyl)-4H-1,2,4-triazol-3-yl)-2-(1H-indol-3-yl)ethyl)picolinamide] | – | – | 1.9 | 0.475 ± 0.196 | 0.733 ± 0.238 | 0.145 ± 0.143 | 0.346 ± 0.159 | –
7 | COc1ccc(Cn2c(Cc3ccccc3)nnc2[C@@H](Cc2c[nH]c3ccccc23)NC(=O)C(C)(C)N)cc1 [compound 13, (R)—N-(1-(4-(4-methoxybenzyl)-5-benzyl-4H-1,2,4-triazol-3-yl)-2-(1H-indol-3-yl)ethyl)-2-amino-2-methylpropanamide] | – | – | 138 | 0.731 ± 0.318 | 0.792 ± 0.337 | 0.057 ± 0.057 | 0.167 ± 0.167 | –
8 | Cc1[nH]c2ccccc2c1C[C@@H](NC(=O)[C@@H](N)Cc1cnc[nH]1)C(=O)N[C@@H](C)C(=O)N[C@@H](Cc1c[nH]c2ccccc12)C(=O)N[C@H](Cc1ccccc1)C(=O)N[C@@H](CCCCN)C(N)=O [hexarelin, Hexarelin, reference compound] (H-H[dTrp(2-Me)]AW[dF]K-NH2) | – | – | – | – | – | – | – | 170.101 ± 13.226 ng/mL and 253.820 ± 12.268 ng/mL and 162.839 ± 21.095 ng/mL
9 | COc1ccc(Cn2c(CCc3c[nH]c4ccccc34)nnc2[C@H](N)Cc2c[nH]c3ccccc23)c(OC)c1 [compound 74, (R)-1-(5-(2-(1H-indol-3-yl)ethyl)-4-(2,4-dimethoxybenzyl)-4H-1,2,4-triazol-3-yl)-2-(1H-indol-3-yl)ethanamine] | 194.564 ± 7.658 ng/mL | 10.571 ± 0.791 ng/mL | – | – | – | – | – | –
10 | COc1ccc(Cn2c(CCc3ccccc3)nnc2[C@@H](Cc2c[nH]c3ccccc23)NC(=O)CN)cc1 [compound 50, (R)—N-(1-(4-(4-methoxybenzyl)-5-phenethyl-4H-1,2,4-triazol-3-yl)-2-(1H-indol-3-yl)ethyl)-2-aminoacetamide] | 164.459 ± 4.443 ng/mL | 9.852 ± 1.040 ng/mL | – | 0.003 ± 0.002 | 0.017 ± 0.001 | 0.012 ± 0.008 | 0.039 ± 0.011 | –
11 | COc1ccc(Cn2c(CCc3c[nH]c4ccccc34)nnc2[C@@H](Cc2c[nH]c3ccccc23)NC(=O)C2CCNCC2)c(OC)c1 [compound 31, (R)—N-(1-(5-(2-(1H-indol-3-yl)ethyl)-4-(2,4-dimethoxybenzyl)-4H-1,2,4-triazol-3-yl)-2-(1H-indol-3-yl)ethyl)piperidine-4-carboxamide] | 103.528 ± 14.094 ng/mL | 119.937 ± 33.054 ng/mL | 0.5 | – | – | – | – | –
12 | COc1ccc(Cn2c(CCc3c[nH]c4ccccc34)nnc2[C@@H](Cc2c[nH]c3ccccc23)NC(=O)c2ccccc2N)c(OC)c1 [compound 38, (R)—N-(1-(5-(2-(1H-indol-3-yl)ethyl)-4-(2,4-dimethoxybenzyl)-4H-1,2,4-triazol-3-yl)-2-(1H-indol-3-yl)ethyl)-2-aminobenzamide] | – | – | 112 | 0.002 ± 0.002 | 0.478 ± 0.141 | 0.001 ± 0 | 0.076 ± 0.096 | –
13 | COc1ccc(Cn2c(CCc3c[nH]c4ccccc34)nnc2[C@@H](Cc2c[nH]c3ccccc23)NC(=O)C2CNCCN2)c(OC)c1 (mixture of isomers) [compound 72] | – | – | 32 | 0.634 ± 0.33 | 0.746 ± 0.31 | 0.008 ± 0.003 | 0.011 ± 0 | –
